Consider one molecule from patent publication US7572913B2, “4-substituted piperidine derivatives” (Bioaxone Therapeutique Inc., priority 2004, dated 2009).

Series [1] concerns the target PRK2 (Homo sapiens, UniProt Q16513). As to conditions: FIG. 5; compound at 10 μM; ATP 100 μM; duplicate. How it is done: Samples can also be tested at 10 μM against CDK5/p35(h), JNK1α1(h), MAPK1(h), PKA(b), PKCα(h), PRK2(h), ROCK-II(r), […], PKBα(h), and Fyn(h) with ATP at 100 μM.
(§1) The values were expressed in a percentage of inhibition of each kinase. Experiments were done in duplicate. ATP was present at 100 μM in the assay.

Series [2] has as its target ROCKI (Homo sapiens, UniProt Q13464). The settings on record: ATP 100 μM, duplicate. How it is done: (§2) Experiments were done in duplicate. ATP was present at 100 μM in the assay.
as §1

Series [3] concerns HUVEC cells. Kind of series: HUVEC capillary tube formation on ECMatrix. The format is cell-based, human. As to conditions: for relative amount of tube formation: 15,000 HUVEC cells on ECMatrix, 6-8 h. From the text:
HUVEC cells will form capillary tubes when plated on protein substrates composed of proteins found in the extracellular matrix. Typical substrates useful for experiments with HUVEC cells are Matrigel, fibronectin or collagen. Matrigel is composed of several proteins that make up the extracellular matrix. Extracelluar matrix substrates can be plated in tissue culture dishes as 3-dimensional cell culture substrates. Another reagent that can be used as a substrate is ECMatrix™ (Chemicon International, Temecula, Calif.), a reconstituted basement membrane matrix of proteins derived from the Engelbreth Holm-Swarm (EHS) mouse tumor. This substrate gels rapidly at 22-35° C. Thus, ECMatrix™ is thawed overnight on ice or in +4° C. A 96-well plate is pre-chilled, and 100μl of the ECMatrix solution is added to each well. The plate is incubated at 37° C. for at least one hour to allow the matrix solution to solidify. The HUVEC cells are harvested and resuspended in a standard cell growth media supplemented with endothelial cell growth supplements. The presence of serum (0.5-10%) is optional. EGM (endothelial cell growth media) can be used. The HUVEC cells are plated at a density of 5×10^3 to 1×10^4 cells per well onto the surface of the polymerized ECMatrix™, and then incubated overnight in a tissue-culture incubator. Cellular network structures are fully developed by 12 to 18 h, with the first signs apparent after 5-6 h. After 24 h, the cells begin to undergo apoptosis. To study the effect of anti-angiogenic factors, they can be added at the time of cell plating. Optional tissue culture vary depending on the cell type, age, and media growth conditions. The tubes are inspected under an inverted light microscope at 40×-200× magnification. Since there is a lack of contrast of the cellular networks, the cultures can be stained with any of the common cell staining procedures such as Diff-Quick or Wright-Giemsa or crystal-violet. The total capillary tube length measurement method is used to quantify the results. The total length of all the capillary tubes in several (3-10) view-fields is measured by Northern Eclipse software.
Photos are representative of 5 separate experiments.
Tranilast is used as a positive control. For this experiment, 15,000 HUVEC cells were plated on ECMatrix™ and incubated for 6-8 h alone before quantification. Results are presented as mean± SEM for one experiment analyzed in duplicate. […] It is used as a positive control.

Series [4] deals with NG108 cells. Nature of the series: Bioassay of neurite outgrowth in NG108 cells on plastic. The settings on record: compound at 35 micromolar. The series is classed as cell-based. From the text:
(§3) Percent net neurite outgrowth at 35 micromolar concentrations are presented in Table 3 together with percent Rock inhibition at 10 micromolar for three compounds designated BA-1043, BA-1049, and BA-1050. […] It should be noted that percent Rock activity is equal to 100% minus percent Rock inhibition.

Series [5] concerns HUVEC cells. Nature of the series: Endothelial cell migration, Boyden chamber with VEGF. The series is classed as cell-based, human. The settings on record: 50 μM; 20 h; 10 ng/mL VEGF; fibronectin-coated transwells.
Description: A common assay uses Boyden or Transwell chambers, a compartmentalized cell cultures system. Cells are plated in the upper compartment of the Transwell chamber, and the ability of a compound under evaluation to block cell migration through, for example the pores of a Fluoroblok membrane, to the bottom compartment is measured. […] Typically, a chemoattractant is added to the bottom well or compartment. In the case of endothelial cells, a useful chemoattractant is vascular endothelial growth factor (VEGF). […] Experiments can be performed in 24-well plates (individual insert or multiwell insert) or in 96-multiwell insert plates with appropriate correction for volume and cell density. […] Following incubation with the cell dye, fluorescence from invaded cells is read in a fluorescence plate reader with bottom reading capabilities at excitation/emission wavelengths of 485/530 nm without further manipulation. Only those labeled cells that have migrated through the pores of the Fluoroblok membrane will be detected.
The data may be expressed as either fluorescent units (FU) or as “fold migration”, i.e., the FU value of the cells migrating through the fibronectin coated insert membrane in response to a chemoattractant with inhibitor relative to the FU value of a control, i.e., without inhibitor. […]
The test system of series [6] is Caki cells (human renal cancer line) subcutaneous tumors. The settings on record: 50 μL PBS with 40 μM E-23a injected into tumor every day for two weeks; 6 mice; vehicle control 304%.
Description: An in vivo model to test anti-proliferative activity of test compounds is a subcutaneous (s.c.) tumor model. In this model, human cancer cells are seeded into mice by a subcutaneous injection. Typically immune-compromised mouse cell lines are used, such as CD-1 nude mice, to prevent a graft rejection response. The test compound is administered as a formulation in a pharmaceutically acceptable vehicle suitable for injection use, such as isotonic phosphate buffered saline (PBS), by injection into the tumor. Different dosing schedules can be tested and compared with mice receiving injection of vehicle control. Before implantation into an animal, tumor cells are expanded in their specific tissue culture medium. Medium is changed 2 to 3 times per week. […] The tumor growth is monitored twice a week. Tumor volume is determined with a digital caliper and calculated using the formula: width^2×length×0.5. The length is taken at the basis of the tumors between the two most distant points of the tumor mass, whereas the width is measured right-angled to the length. […] Tumor volume and animal body weight are recorded twice a week.
Caki cells, which are a human renal cancer line were grown in tissue culture. […] Tumors were evaluated after 2 weeks of treatment after the final injection.
Series [7] relates to HEC-1B cells. As to conditions: 72 hours incubation; different concentrations; Alamar Blue.
Description: For this assay, cells are thawed and passaged at least one time before the experiment. Cells are grown in a culture dish in media supplemented with serum and supplements appropriate for the test cell line. When they reach logarithmic growth, the cells are trypsinized to detach them from the culture dish and are counted. The cell pellet is resuspended and adjusted to 2-5×10^4 cells/ml. A 96-well microplate is used for the experiment and cells are plated at a density of 1000 to 5000 cells/well in 100 μL of growth media. The seeding density is noted to ensure that the cells in the control wells are not overgrown after the total incubation time. […] At the end of the incubation period, the fluorescence intensity is read with a 96-well microplate reader (excitation 530-560 nm; emission 590 nm), with bottom reading. The fluorescence generated in the AlamarBlue™ assay can be stopped and stabilized by the addition of 3% SDS. […]
For each concentration of test article, a % growth is calculated using the following equation, wherein • T0=fluorescence units at the time of test article addition (time 0) • C=fluorescence units for control (no test article) • Ti=fluorescence unit for test article (different dilution)
Cadmium sulfate hydrate (CAD) was used as a positive control. Following treatment, the rate of proliferation was measured using the Alamar Blue assay.
Series [8] concerns the target MSK1 (Homo sapiens, UniProt O75582). As to conditions: FIG. 5; compound at 10 μM; ATP 100 μM; duplicate. How it is done: as §1
Series [9] concerns human plasma proteins.
Excerpt: Plasma or serum protein binding assays using the equilibrium dialysis method are used to determine drug availability. Equilibrium dialysis studies using a 96-well microplate format or using conventional 2-chambered Teflon dialysis cells can be used to determine plasma or serum binding, and LC/MS/MS analysis is used for test compound quantification. The Teflon dialysis cell system is commonly used to determine the time to reach equilibrium, the fraction of a compound bound and unbound to plasma proteins and the effect of concentration on the extent of binding. Test compound quantification is performed by HPLC or LC/MS/MS analysis.
To perform equilibrium dialysis the following procedures can be used. To 0.990 mL of thawed plasma (37° C.), a 10 μL aliquot of the stock solutions is added for test compound concentrations of 35 μM. An appropriate volume of buffer (Dulbecco's phosphate buffered saline, pH 7.4) is spiked with each test compound at a concentration of 35 μM. Duplicate aliquots (130 μL) of each spiked plasma and buffer solution are collected prior to dialysis into labeled 1.5 mL polypropylene tubes and stored frozen at −40° C. […] Equilibrium dialysis is performed in a 96-well Teflon dialysis unit. Each well of the unit consists of two chambers separated by a vertically aligned dialysis membrane (regenerated cellulose) with a molecular weight cut-off of 12-14 KDa. The equilibrium dialysis membranes are first pre-soaked in deionized water for 30 min, then soaked in 20% ethanol for 20 min, followed by rinsing twice with deionized water. The equilibrium dialysis apparatus is assembled according to the manufacturer's directions. One chamber of each well is filled with 150 μL of blank buffer (to prevent membrane dehydration). Aliquots (150 μL) of spiked plasma or spiked buffer are added to the opposing chamber in each well. The top of the plate is sealed with an adhesive sealing film to prevent evaporation and to maintain constant pH during incubation. All dialysis experiments with the test compounds and standards are assessed using duplicate samples. The dialysis apparatus is incubated at 37° C. in an orbital shaker/incubator (Lab-Line Enviro) samples are collected following 24 hours of incubation. Samples containing the test compounds are stored frozen at −70° C. until analysis. Samples (100 μL) containing the radiolabels are added and mixed by vortex. The disintegrations per minute (dpm) in each vial are measured with a liquid scintillation counter. The fraction of each test compound and standard unbound (fu) to human serum proteins is calculated according to the following equation:
[formula] wherein Cbuffer and Cplasma represent the concentration of the compound measured in the buffer and plasma chambers, respectively, following dialysis. The fraction bound (fb) to the plasma proteins is determined as: 1−fu.
Series [10] concerns the target T1, ROCKII (Rattus norvegicus, UniProt Q62868).
T1 construct: purchased Upstate Ltd. (United Kingdom)
Kind of series: ROCKII inhibition at a single concentration of 10 μM (selectivity histogram, Table 3). The format is biochemical. How it is done: Compounds of this invention can be evaluated for kinase inhibition activity as solutions in 100% DMSO at a concentration of 10 μM added to GSK3β(h) and to ROCK-II(r) with ATP present at a concentration of 100 μM. Samples of compounds of this invention can be tested at 10 μM.
The data can be presented as relative ROCK kinase inhibition at a reference compound concentration of 3.5 uM and at 35 μM, wherein 0 signifies complete inhibition under the ATP concentration tested (100 μM). ROCK kinase activity is the opposite of ROCK kinase inhibition, and is compared with the GSKB kinase activity.
as §2, §1, §3

Where [11] appears, read: equilibrium dialysis 24 h, 37° C.

Each structure is given as a SMILES string.

T1 sequence (Q62868 whole entry): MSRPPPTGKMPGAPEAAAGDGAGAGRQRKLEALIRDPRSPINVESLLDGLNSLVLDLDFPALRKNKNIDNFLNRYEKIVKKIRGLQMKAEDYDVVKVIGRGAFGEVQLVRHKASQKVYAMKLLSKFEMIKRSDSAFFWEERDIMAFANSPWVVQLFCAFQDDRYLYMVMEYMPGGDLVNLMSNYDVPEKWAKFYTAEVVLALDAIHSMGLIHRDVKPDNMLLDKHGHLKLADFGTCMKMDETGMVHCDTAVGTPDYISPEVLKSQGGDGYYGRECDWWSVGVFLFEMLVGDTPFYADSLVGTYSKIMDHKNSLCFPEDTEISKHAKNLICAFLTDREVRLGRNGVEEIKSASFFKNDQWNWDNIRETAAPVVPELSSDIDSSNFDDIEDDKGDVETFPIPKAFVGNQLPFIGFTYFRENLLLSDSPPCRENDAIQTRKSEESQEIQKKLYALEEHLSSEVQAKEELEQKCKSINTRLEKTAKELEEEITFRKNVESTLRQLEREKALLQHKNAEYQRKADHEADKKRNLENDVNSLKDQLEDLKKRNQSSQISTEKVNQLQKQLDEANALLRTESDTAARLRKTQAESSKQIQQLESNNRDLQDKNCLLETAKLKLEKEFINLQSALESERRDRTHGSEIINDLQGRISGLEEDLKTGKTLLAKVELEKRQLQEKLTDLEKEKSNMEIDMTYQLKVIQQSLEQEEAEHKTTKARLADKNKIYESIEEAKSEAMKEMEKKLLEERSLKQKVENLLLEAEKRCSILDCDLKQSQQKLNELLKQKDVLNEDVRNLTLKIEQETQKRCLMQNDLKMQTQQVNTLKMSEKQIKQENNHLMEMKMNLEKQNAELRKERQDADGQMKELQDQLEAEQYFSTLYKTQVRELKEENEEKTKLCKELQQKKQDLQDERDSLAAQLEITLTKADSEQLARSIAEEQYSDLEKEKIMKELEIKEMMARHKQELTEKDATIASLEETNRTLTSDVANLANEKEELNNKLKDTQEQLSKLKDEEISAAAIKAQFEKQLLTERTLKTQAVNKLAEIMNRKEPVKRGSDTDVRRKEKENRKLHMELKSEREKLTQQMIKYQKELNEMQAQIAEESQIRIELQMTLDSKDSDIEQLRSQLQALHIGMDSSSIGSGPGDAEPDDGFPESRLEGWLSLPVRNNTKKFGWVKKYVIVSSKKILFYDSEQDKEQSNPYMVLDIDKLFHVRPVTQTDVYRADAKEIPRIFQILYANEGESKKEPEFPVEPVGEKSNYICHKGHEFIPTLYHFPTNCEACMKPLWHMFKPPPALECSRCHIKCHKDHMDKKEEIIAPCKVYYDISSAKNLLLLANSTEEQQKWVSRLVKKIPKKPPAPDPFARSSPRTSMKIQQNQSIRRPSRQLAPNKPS
ROCKI, sequence (Q13464 whole entry): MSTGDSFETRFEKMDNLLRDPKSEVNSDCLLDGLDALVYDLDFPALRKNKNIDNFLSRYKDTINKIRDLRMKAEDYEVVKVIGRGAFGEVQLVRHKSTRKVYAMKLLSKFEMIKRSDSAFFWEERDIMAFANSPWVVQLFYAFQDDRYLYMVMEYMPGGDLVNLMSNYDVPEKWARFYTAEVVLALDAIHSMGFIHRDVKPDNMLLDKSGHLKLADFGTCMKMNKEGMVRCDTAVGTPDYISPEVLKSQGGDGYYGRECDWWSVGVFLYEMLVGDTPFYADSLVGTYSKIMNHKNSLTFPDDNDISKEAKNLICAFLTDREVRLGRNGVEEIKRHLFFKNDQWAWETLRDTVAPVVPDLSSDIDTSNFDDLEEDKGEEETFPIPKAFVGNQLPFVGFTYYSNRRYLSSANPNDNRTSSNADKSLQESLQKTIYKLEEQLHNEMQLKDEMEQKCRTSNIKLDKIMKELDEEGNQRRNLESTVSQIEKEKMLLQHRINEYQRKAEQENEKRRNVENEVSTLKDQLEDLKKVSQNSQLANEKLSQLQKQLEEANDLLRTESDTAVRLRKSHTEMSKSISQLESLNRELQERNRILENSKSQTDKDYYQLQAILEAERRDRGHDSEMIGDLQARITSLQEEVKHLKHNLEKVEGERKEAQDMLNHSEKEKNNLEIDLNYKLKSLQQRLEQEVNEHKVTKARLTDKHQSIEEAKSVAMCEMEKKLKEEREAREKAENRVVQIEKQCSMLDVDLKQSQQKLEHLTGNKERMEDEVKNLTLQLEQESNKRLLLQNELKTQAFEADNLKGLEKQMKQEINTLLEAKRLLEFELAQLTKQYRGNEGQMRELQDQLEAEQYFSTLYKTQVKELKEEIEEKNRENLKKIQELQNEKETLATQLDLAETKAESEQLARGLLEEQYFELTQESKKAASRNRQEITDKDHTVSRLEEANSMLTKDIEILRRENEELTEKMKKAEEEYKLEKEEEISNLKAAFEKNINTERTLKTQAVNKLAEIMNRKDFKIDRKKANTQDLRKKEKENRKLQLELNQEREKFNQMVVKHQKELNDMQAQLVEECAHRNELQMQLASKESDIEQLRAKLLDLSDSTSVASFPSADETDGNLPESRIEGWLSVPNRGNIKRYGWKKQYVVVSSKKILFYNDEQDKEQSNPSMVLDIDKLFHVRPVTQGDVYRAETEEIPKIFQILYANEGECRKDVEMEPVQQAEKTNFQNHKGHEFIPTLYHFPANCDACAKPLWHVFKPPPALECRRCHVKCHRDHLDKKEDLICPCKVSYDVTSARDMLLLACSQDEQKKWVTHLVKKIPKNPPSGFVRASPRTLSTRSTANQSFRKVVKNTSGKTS
PRK2, sequence (Q16513 whole entry): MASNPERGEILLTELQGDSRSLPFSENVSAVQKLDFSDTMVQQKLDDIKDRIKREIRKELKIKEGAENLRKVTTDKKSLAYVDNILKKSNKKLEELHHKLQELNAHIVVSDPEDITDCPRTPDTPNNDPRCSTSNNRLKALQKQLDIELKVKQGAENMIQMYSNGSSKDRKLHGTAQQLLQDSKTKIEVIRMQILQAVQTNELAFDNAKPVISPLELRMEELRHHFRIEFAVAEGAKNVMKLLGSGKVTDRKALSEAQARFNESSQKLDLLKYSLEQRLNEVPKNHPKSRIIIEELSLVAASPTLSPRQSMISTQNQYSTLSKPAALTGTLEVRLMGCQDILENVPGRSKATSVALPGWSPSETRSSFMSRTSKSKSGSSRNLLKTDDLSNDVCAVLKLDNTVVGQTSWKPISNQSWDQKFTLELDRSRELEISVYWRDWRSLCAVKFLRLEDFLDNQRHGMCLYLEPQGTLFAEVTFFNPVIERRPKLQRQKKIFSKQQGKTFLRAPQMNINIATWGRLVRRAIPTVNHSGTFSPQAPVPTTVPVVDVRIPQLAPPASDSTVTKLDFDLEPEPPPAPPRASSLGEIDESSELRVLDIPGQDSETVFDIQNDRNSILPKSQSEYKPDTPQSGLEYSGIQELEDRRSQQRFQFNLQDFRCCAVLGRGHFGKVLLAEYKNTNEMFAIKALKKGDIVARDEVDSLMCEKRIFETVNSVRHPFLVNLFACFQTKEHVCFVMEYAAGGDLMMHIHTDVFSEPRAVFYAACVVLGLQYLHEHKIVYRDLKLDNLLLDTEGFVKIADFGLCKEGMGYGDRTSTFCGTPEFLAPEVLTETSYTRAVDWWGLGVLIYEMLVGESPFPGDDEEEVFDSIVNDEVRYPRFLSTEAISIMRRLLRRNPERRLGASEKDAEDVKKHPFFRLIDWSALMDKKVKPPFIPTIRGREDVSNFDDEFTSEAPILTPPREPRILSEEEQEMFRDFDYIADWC
MSK1, sequence (O75582 whole entry, species assumed): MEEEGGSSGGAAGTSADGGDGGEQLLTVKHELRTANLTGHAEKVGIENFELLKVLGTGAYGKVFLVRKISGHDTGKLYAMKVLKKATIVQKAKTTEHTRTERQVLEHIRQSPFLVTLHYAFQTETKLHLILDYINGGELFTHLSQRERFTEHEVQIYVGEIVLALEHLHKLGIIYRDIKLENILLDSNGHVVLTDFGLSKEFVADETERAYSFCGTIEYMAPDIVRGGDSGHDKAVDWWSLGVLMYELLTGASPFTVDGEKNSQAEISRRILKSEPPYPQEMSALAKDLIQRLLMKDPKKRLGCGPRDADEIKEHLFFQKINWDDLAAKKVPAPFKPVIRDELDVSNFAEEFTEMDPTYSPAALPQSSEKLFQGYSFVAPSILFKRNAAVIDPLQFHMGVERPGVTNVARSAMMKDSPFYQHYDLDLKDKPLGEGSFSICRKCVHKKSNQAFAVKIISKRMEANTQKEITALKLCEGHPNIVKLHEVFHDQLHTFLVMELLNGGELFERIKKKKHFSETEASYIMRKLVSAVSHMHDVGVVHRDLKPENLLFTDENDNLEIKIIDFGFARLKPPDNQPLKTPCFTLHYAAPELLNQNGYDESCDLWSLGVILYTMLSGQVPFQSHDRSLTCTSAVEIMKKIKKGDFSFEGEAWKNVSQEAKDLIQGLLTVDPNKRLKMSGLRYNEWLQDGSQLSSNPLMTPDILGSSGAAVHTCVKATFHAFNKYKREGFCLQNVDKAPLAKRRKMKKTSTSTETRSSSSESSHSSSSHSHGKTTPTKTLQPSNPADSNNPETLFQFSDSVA

Turning to `CC(N)C1CCN(S(=O)(=O)c2cccc3cnccc23)CC1.Cl.Cl` (racemic) [E-23a, (R,S)-N-(5″-isoquinolinesulfonyl)-4-[ethan-1′-amino]piperidine dihydrochloride], the “percentage of inhibition of PRK2” value in series [1] was found to be 52%. In [2] (FIG. 5, compound at 10 μM), the “percentage of inhibition of ROCK I” value is listed as 31%. Moreover, the IC50 in [2] (read-out: IC50, inhibition of ROCKI) was 20.6 µM. The figures for the “relative amount of tube formation” value in [3] (10 μM) and in series [3] (50 μM) were “approximately 40 % relative to control” and “approximately 35 % relative to control”, respectively. Also, in series [3] (E-23a 10 and 50 μM), the “HUVEC tube formation relative to control (in words)” value is given as “substantially reduced”. Also, the “Percent Net Neurite Outgrowth at 35 micromolar” value in [4] stood at 39.0%. For the same molecule, the “migration, % of the amount observed with Ctl+VEGF” value in series [5] is “approximately 40%”. For the same molecule, the “mean tumor size increase, % of initial tumor volume” value in [6] is reported as “approximately 156 % of initial tumor volume”. Also, the “proliferation of HEC-1B cells (in words)” value in [7] was “reduced proliferation”. In series [8], the “percentage of inhibition of MSK1” value is on record as 43%. In addition, the “availability in plasma (in words)” value in series [9] (equilibrium dialysis) is listed as “relatively available in the unbound form”. Also, the “Bound (%)” value in series [9] (setting [11]) was 7.26%. Further, in [9] (setting [11]), the “Unbound (%)” value is listed as 92.7%. The “percentage of inhibition of ROCKII” value in series [10] (FIG. 5, compound at 10 μM, ATP 100 μM, duplicate) is recorded as 83%. The “Percent Rock inhibition at 10 micromolar” value in [10] (Table 3, compound at 10 micromolar) amounted to 97%.

One may read the IC50 as the concentration at which inhibition is half-maximal.
